# Paper PMC11882969 (Nature Communications, 2025)
# Legend:
# [1] = biological target: T1, CB1 (rCB1) (Rattus norvegicus, UniProt P20272); assay: Radioligand competition binding, [3H]-CP-55,940, rat brain membranes
# [2] = biological target: hCB1 (Homo sapiens, UniProt P21554); assay: bioSensAll ebBRET signaling profiling, hCB1; type: cell-based; design: host or cells: HEK293SL cells, transient PEI transfection; conditions: for Barr2+GRK2 hCB1 response: Barr2+GRK2 biosensor; for Gi1 hCB1 / GoB hCB1: single replicate values, FigS6a
# Chain of hCB1 (P21554 whole entry): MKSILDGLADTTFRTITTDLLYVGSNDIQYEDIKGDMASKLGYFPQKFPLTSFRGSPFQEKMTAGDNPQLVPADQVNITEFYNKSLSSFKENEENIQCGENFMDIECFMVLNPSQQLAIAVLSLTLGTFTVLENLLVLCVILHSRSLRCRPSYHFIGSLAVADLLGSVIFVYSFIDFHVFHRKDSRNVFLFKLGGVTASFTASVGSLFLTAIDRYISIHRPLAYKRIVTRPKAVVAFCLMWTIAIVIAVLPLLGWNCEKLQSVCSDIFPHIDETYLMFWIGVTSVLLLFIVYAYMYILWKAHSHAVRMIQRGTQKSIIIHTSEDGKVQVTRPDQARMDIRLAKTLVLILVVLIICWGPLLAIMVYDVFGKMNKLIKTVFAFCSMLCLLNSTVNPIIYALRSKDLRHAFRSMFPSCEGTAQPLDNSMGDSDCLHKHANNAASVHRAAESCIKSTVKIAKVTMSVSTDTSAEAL
# [3] = biological target: T1, CB1 (rCB1); assay: Single-point radioligand displacement screen; type: binding; conditions: 10 µM, 1 µM or 300 nM by cell colour (not visible)
# T1 sequence (P20272 whole entry): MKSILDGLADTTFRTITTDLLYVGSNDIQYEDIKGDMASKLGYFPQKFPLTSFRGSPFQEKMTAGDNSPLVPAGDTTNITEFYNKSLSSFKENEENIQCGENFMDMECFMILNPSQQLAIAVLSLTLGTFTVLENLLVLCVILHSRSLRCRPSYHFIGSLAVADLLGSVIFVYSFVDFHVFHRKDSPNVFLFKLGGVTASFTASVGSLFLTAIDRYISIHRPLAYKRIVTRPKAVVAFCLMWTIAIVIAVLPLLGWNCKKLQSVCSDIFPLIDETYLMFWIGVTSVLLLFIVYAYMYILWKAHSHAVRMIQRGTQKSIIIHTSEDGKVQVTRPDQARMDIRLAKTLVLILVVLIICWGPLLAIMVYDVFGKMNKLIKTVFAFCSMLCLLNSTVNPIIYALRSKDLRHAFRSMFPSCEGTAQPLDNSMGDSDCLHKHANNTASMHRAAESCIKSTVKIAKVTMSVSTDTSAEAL
smiles,measurement,setting,value
Brc1cc2c(cc1Cc1noc(-c3cnn(CC4CC4)c3)n1)OCO2 [‘5424],Ki,[1],876 nM
same,Barr2+GRK2 hCB1 response,[2]; Log [Compound] (M) -4.22186,13.3846
same,Barr2+GRK2 hCB1 response,[2]; Log [Compound] (M) -4.63927,-34.7954
same,Barr2+GRK2 hCB1 response,[2]; Log [Compound] (M) -5.05788,-53.3016
same,Barr2+GRK2 hCB1 response,[2]; Log [Compound] (M) -5.47381,-24.9041
same,Barr2+GRK2 hCB1 response,[2]; Log [Compound] (M) -5.89285,-50.1109
same,Barr2+GRK2 hCB1 response,[2]; Log [Compound] (M) -6.31878,-50.749
same,Barr2+GRK2 hCB1 response,[2]; Log [Compound] (M) -6.72585,-48.8346
same,Barr2+GRK2 hCB1 response,[2]; Log [Compound] (M) -7.14267,-52.6635
same,Barr2+GRK2 hCB1 response,[2]; Log [Compound] (M) -7.55284,-51.0681
same,Barr2+GRK2 hCB1 response,[2]; Log [Compound] (M) -8,-33.5191
same,Barr2+GRK2 hCB1 response,[2]; Log [Compound] (M) -8.22186,-13.7366
same,Barr2+GRK2 hCB1 response,[2]; Log [Compound] (M) -8.39794,-34.7954
same,Barr2+GRK2 hCB1 response,[2]; Log [Compound] (M) -8.68787,-65.1073
same,Barr2+GRK2 hCB1 response,[2]; Log [Compound] (M) -9.15521,-41.4959
same,Barr2+GRK2 hCB1 response,[2]; Log [Compound] (M) -9.61989,-48.1965
same,Barr2+GRK2 hCB1 response,[2]; Log [Compound] (M) -10.0969,-56.8114
same,Barr2+GRK2 hCB1 response,[2]; Log [Compound] (M) -10.5529,-48.8346
same,Barr2+GRK2 hCB1 response,[2]; Log [Compound] (M) -11.0177,-49.7918
same,Barr2+GRK2 hCB1 response,[2]; Log [Compound] (M) -11.4949,-48.1965
same,Barr2+GRK2 hCB1 response,[2]; Log [Compound] (M) -11.9208,-46.9202
same,Barr2+GRK2 hCB1 response,[2]; Log [Compound] (M) -12.3979,-47.8774
same,Barr2+GRK2 hCB1 response,[2]; Log [Compound] (M) -12.8861,-20.4371
same,Barr2+GRK2 hCB1 response,[2]; Log [Compound] (M) -13.3979,-11.8221
same,Gi1 hCB1,[2]; Log [Compound] (M) -4.22186,-12.5553
same,GoB hCB1,[2]; Log [Compound] (M) -4.22186,-17.0204
same,Gi1 hCB1,[2]; Log [Compound] (M) -4.63927,-11.9852
same,GoB hCB1,[2]; Log [Compound] (M) -4.63927,-18.7739
same,Gi1 hCB1,[2]; Log [Compound] (M) -5.05788,-14.0757
same,GoB hCB1,[2]; Log [Compound] (M) -5.05788,-12.8536
same,Gi1 hCB1,[2]; Log [Compound] (M) -5.47381,-12.6978
same,GoB hCB1,[2]; Log [Compound] (M) -5.47381,-15.4926
same,Gi1 hCB1,[2]; Log [Compound] (M) -5.89285,-12.001
same,GoB hCB1,[2]; Log [Compound] (M) -5.89285,-16.569
same,Gi1 hCB1,[2]; Log [Compound] (M) -6.31878,-13.0779
same,GoB hCB1,[2]; Log [Compound] (M) -6.31878,-15.128
same,Gi1 hCB1,[2]; Log [Compound] (M) -6.72585,-11.811
same,GoB hCB1,[2]; Log [Compound] (M) -6.72585,-16.3259
same,Gi1 hCB1,[2]; Log [Compound] (M) -7.14267,-11.1775
same,GoB hCB1,[2]; Log [Compound] (M) -7.14267,-15.4926
same,Gi1 hCB1,[2]; Log [Compound] (M) -7.55284,-10.8449
same,GoB hCB1,[2]; Log [Compound] (M) -7.55284,-14.0342
same,Gi1 hCB1,[2]; Log [Compound] (M) -8,-8.707
same,GoB hCB1,[2]; Log [Compound] (M) -8,-12.871
same,Gi1 hCB1,[2]; Log [Compound] (M) -8.22186,-5.46
same,GoB hCB1,[2]; Log [Compound] (M) -8.22186,-9.781
same,Gi1 hCB1,[2]; Log [Compound] (M) -8.39794,-6.126
same,GoB hCB1,[2]; Log [Compound] (M) -8.39794,-10.3709
same,Gi1 hCB1,[2]; Log [Compound] (M) -8.68787,-3.497
same,GoB hCB1,[2]; Log [Compound] (M) -8.68787,-5.77
same,Gi1 hCB1,[2]; Log [Compound] (M) -9.15521,-3.212
same,GoB hCB1,[2]; Log [Compound] (M) -9.15521,-5.544
same,Gi1 hCB1,[2]; Log [Compound] (M) -9.61989,-0.3926
same,GoB hCB1,[2]; Log [Compound] (M) -9.61989,-4.867
same,Gi1 hCB1,[2]; Log [Compound] (M) -10.0969,-1.39
same,GoB hCB1,[2]; Log [Compound] (M) -10.0969,-5.128
same,Gi1 hCB1,[2]; Log [Compound] (M) -10.5529,0.9853
same,GoB hCB1,[2]; Log [Compound] (M) -10.5529,-3.287
same,Gi1 hCB1,[2]; Log [Compound] (M) -11.0177,-1.058
same,GoB hCB1,[2]; Log [Compound] (M) -11.0177,-4.781
same,Gi1 hCB1,[2]; Log [Compound] (M) -11.4949,-2.008
same,GoB hCB1,[2]; Log [Compound] (M) -11.4949,-5.51
same,Gi1 hCB1,[2]; Log [Compound] (M) -11.9208,-4.653
same,GoB hCB1,[2]; Log [Compound] (M) -11.9208,-6.586
same,Gi1 hCB1,[2]; Log [Compound] (M) -12.3979,-2.024
same,GoB hCB1,[2]; Log [Compound] (M) -12.3979,-6.3778
same,Gi1 hCB1,[2]; Log [Compound] (M) -12.8861,-1.992
same,GoB hCB1,[2]; Log [Compound] (M) -12.8861,-4.242
same,Gi1 hCB1,[2]; Log [Compound] (M) -13,0.06671
same,GoB hCB1,[2]; Log [Compound] (M) -13,-4.798
same,Gi1 hCB1,[2]; Log [Compound] (M) cell empty,-0.7726
same,GoB hCB1,[2]; Log [Compound] (M) cell empty,-5.458
same,"% 1H-CP-55,940 displacement (mean) from single point screen",[3],80.66%
